Patent US6737383B1, “Herbicidal oxadiazolidines” (priority 1999, dated 2004)

What was measured:
Conditions in all cases: Preemergence
wheat = test: Test B pre/postemergence wheat; type: in vivo, Triticum aestivum
Procedure, shortened: (§1)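 Herbicidal effect was estimated by eye on a ten-point control scale after plants spent twelve to sixteen days in a greenhouse following soil or foliar treatment. Foliar sprays targeted plants at one to four leaves; all doses were formulated in a non-phytotoxic solvent with surfactant.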

velvetleaf = test: Test B pre/postemergence velvetleaf; type: in vivo, Abutilon theophrasti
Procedure, shortened: as §1

morningglory = test: Test B pre/postemergence morningglory; type: in vivo, Ipomoea hederacea
Procedure, shortened: as §1

crabgrass = test: Test B pre/postemergence crabgrass; type: in vivo, Digitaria sanguinalis
Procedure, shortened: as §1

surinam grass = test: Test B pre/postemergence surinam grass; type: in vivo, Brachiaria decumbens
Procedure, shortened: as §1

blackgrass = test: Test B pre/postemergence blackgrass; type: in vivo, Alopecurus myosuroides
Procedure, shortened: as §1

sugar beet = test: Test B pre/postemergence sugar beet; type: in vivo, Beta vulgaris
Procedure, shortened: as §1

giant foxtail = test: Test B pre/postemergence giant foxtail; type: in vivo, Setaria faberii
Procedure, shortened: as §1

soybean = test: Test B pre/postemergence soybean; type: in vivo, Glycine max
Procedure, shortened: as §1

rape = test: Test B pre/postemergence rape; type: in vivo, Brassica napus
Procedure, shortened: as §1

purple nutsedge = test: Test B pre/postemergence purple nutsedge; type: in vivo, Cyperus rotundus
Procedure, shortened: as §1

bedstraw = test: Test B pre/postemergence bedstraw; type: in vivo, Galium aparine
Procedure, shortened: as §1

wild oat = test: Test B pre/postemergence wild oat; type: in vivo, Avena fatua
Procedure, shortened: as §1

cocklebur = test: Test B pre/postemergence cocklebur; type: in vivo, Xanthium strumarium
Procedure, shortened: as §1

corn = test: Test B pre/postemergence corn; type: in vivo, Zea mays
Procedure, shortened: as §1

pigweed = test: Test B pre/postemergence pigweed; type: in vivo, Amaranthus retroflexus
Procedure, shortened: as §1

[1] = Rate 62 g/ha, scale of 0 to 10 where 0 is no effect and 10 is complete control
[2] = Rate 125 g/ha, scale of 0 to 10 where 0 is no effect and 10 is complete control
[3] = Rate 250 g/ha, scale 0 (no effect) to 10 (complete control)
[4] = Rate 500 g/ha, scale 0 to 10 (0 no effect, 10 complete control)
[5] = Rate 1000 g/ha, scale 0 to 10 (0 no effect, 10 complete control)

CC(C)N(C(=O)n1oc(=O)n(C(C)C2CCC2)c1=O)c1ccc(F)cc1 (centres unmarked) [Compound 718]
Wheat plant response rating (wheat; [1]): 0 | Plant response rating, Wheat (wheat; [2]): 0 | Wheat plant response rating (wheat; [3]): 0 | Wheat plant response rating (wheat; [4]): 2 | Velvetleaf plant response rating (velvetleaf; [1]): 0 | Plant response rating, Velvetleaf (velvetleaf; [2]): 0 | Velvetleaf plant response rating (velvetleaf; [3]): 0 | Velvetleaf plant response rating (velvetleaf; [4]): 0 | Morningglory plant response rating (morningglory; [1]): 0 | Plant response rating, Morningglory (morningglory; [2]): 0 | Morningglory plant response rating (morningglory; [3]): 0 | Morningglory plant response rating (morningglory; [4]): 0 | Crabgrass plant response rating (crabgrass; [1]): 9 | Plant response rating, Crabgrass (crabgrass; [2]): 10 | Crabgrass plant response rating (crabgrass; [3]): 10 | Crabgrass plant response rating (crabgrass; [4]): 10 | B. signalgrass plant response rating (surinam grass; [1]): 0 | Plant response rating, B. signalgrass (surinam grass; [2]): 2 | B. signalgrass plant response rating (surinam grass; [3]): 7 | B. signalgrass plant response rating (surinam grass; [4]): 9 | Blackgrass plant response rating (blackgrass; [1]): 8 | Plant response rating, Blackgrass (blackgrass; [2]): 9 | Blackgrass plant response rating (blackgrass; [3]): 9 | Blackgrass plant response rating (blackgrass; [4]): 10 | Sugarbeets plant response rating (sugar beet; [1]): 0 | Plant response rating, Sugarbeets (sugar beet; [2]): 0 | Sugarbeets plant response rating (sugar beet; [3]): 2 | Sugarbeets plant response rating (sugar beet; [4]): 2 | Giant foxtail plant response rating (giant foxtail; [1]): 10 | Plant response rating, Giant foxtail (giant foxtail; [2]): 10 | Giant foxtail plant response rating (giant foxtail; [3]): 10 | Giant foxtail plant response rating (giant foxtail; [4]): 10 | Soybean plant response rating (soybean; [1]): 0 | Plant response rating, Soybean (soybean; [2]): 0 | Soybean plant response rating (soybean; [3]): 0 | Soybean plant response rating (soybean; [4]): 0 | Rape plant response rating (rape; [1]): 0 | Plant response rating, Rape (rape; [2]): 0 | Rape plant response rating (rape; [3]): 2 | Rape plant response rating (rape; [4]): 3 | Nutsedge plant response rating (purple nutsedge; [1]): 0 | Nutsedge plant response rating (purple nutsedge; [3]): 0 | Nutsedge plant response rating (purple nutsedge; [4]): 0 | Bedstraw plant response rating (bedstraw; [1]): 0 | Plant response rating, Bedstraw (bedstraw; [2]): 0 | Bedstraw plant response rating (bedstraw; [3]): 0 | Bedstraw plant response rating (bedstraw; [4]): 0 | Wild oats plant response rating (wild oat; [1]): 2 | Plant response rating, Wild oats (wild oat; [2]): 2 | Wild oats plant response rating (wild oat; [4]): 8 | Cocklebur plant response rating (cocklebur; [1]): 0 | Plant response rating, Cocklebur (cocklebur; [2]): 0 | Cocklebur plant response rating (cocklebur; [3]): 0 | Cocklebur plant response rating (cocklebur; [4]): 0 | Corn plant response rating (corn; [1]): 0 | Plant response rating, Corn (corn; [2]): 0 | Corn plant response rating (corn; [3]): 0 | Corn plant response rating (corn; [4]): 3 | Redroot pigweed plant response rating (pigweed; [1]): 0 | Plant response rating, Redroot pigweed (pigweed; [2]): 4 | Redroot pigweed plant response rating (pigweed; [3]): 6 | Redroot pigweed plant response rating (pigweed; [4]): 8

COC(=O)C(c1ccccc1)n1c(=O)on(C(=O)N(c2ccccc2)C(C)C)c1=O (centres unmarked) [Compound 723]
Plant response rating, Wheat (wheat; [2]): 0 | Wheat plant response rating (wheat; [3]): 0 | Wheat plant response rating (wheat; [4]): 0 | Plant response rating, Wheat (wheat; [5]): 0 | Plant response rating, Velvetleaf (velvetleaf; [2]): 0 | Velvetleaf plant response rating (velvetleaf; [3]): 0 | Velvetleaf plant response rating (velvetleaf; [4]): 0 | Plant response rating, Velvetleaf (velvetleaf; [5]): 0 | Plant response rating, Morningglory (morningglory; [2]): 0 | Morningglory plant response rating (morningglory; [3]): 0 | Morningglory plant response rating (morningglory; [4]): 0 | Plant response rating, Morningglory (morningglory; [5]): 0 | Plant response rating, Crabgrass (crabgrass; [2]): 2 | Crabgrass plant response rating (crabgrass; [3]): 2 | Crabgrass plant response rating (crabgrass; [4]): 9 | Plant response rating, Crabgrass (crabgrass; [5]): 9 | Plant response rating, B. signalgrass (surinam grass; [2]): 0 | B. signalgrass plant response rating (surinam grass; [3]): 2 | B. signalgrass plant response rating (surinam grass; [4]): 2 | Plant response rating, B. signalgrass (surinam grass; [5]): 6 | Plant response rating, Blackgrass (blackgrass; [2]): 0 | Blackgrass plant response rating (blackgrass; [3]): 0 | Blackgrass plant response rating (blackgrass; [4]): 2 | Plant response rating, Blackgrass (blackgrass; [5]): 6 | Plant response rating, Sugarbeets (sugar beet; [2]): 0 | Sugarbeets plant response rating (sugar beet; [3]): 0 | Sugarbeets plant response rating (sugar beet; [4]): 0 | Plant response rating, Sugarbeets (sugar beet; [5]): 0 | Plant response rating, Giant foxtail (giant foxtail; [2]): 7 | Giant foxtail plant response rating (giant foxtail; [3]): 9 | Giant foxtail plant response rating (giant foxtail; [4]): 10 | Plant response rating, Giant foxtail (giant foxtail; [5]): 10 | Plant response rating, Soybean (soybean; [2]): 0 | Soybean plant response rating (soybean; [3]): 0 | Soybean plant response rating (soybean; [4]): 0 | Plant response rating, Soybean (soybean; [5]): 0 | Plant response rating, Rape (rape; [2]): 0 | Rape plant response rating (rape; [3]): 0 | Rape plant response rating (rape; [4]): 0 | Plant response rating, Rape (rape; [5]): 2 | Plant response rating, Nutsedge (purple nutsedge; [2]): 0 | Nutsedge plant response rating (purple nutsedge; [3]): 0 | Plant response rating, Nutsedge (purple nutsedge; [5]): 0 | Plant response rating, Bedstraw (bedstraw; [2]): 0 | Bedstraw plant response rating (bedstraw; [3]): 0 | Bedstraw plant response rating (bedstraw; [4]): 0 | Plant response rating, Bedstraw (bedstraw; [5]): 0 | Plant response rating, Wild oats (wild oat; [2]): 0 | Wild oats plant response rating (wild oat; [3]): 0 | Wild oats plant response rating (wild oat; [4]): 0 | Plant response rating, Wild oats (wild oat; [5]): 8 | Plant response rating, Cocklebur (cocklebur; [2]): 0 | Cocklebur plant response rating (cocklebur; [3]): 0 | Cocklebur plant response rating (cocklebur; [4]): 0 | Plant response rating, Cocklebur (cocklebur; [5]): 0 | Plant response rating, Corn (corn; [2]): 0 | Corn plant response rating (corn; [3]): 0 | Corn plant response rating (corn; [4]): 0 | Plant response rating, Corn (corn; [5]): 0 | Plant response rating, Redroot pigweed (pigweed; [2]): 0 | Redroot pigweed plant response rating (pigweed; [3]): 0 | Redroot pigweed plant response rating (pigweed; [4]): 0 | Plant response rating, Redroot pigweed (pigweed; [5]): 5

COC(CCl)n1c(=O)on(C(=O)N(c2ccc(Cl)cc2)C(C)C)c1=O (centres unmarked) [Compound 725]
Wheat plant response rating (wheat; [1]): 0 | Plant response rating, Wheat (wheat; [2]): 0 | Wheat plant response rating (wheat; [3]): 0 | Wheat plant response rating (wheat; [4]): 0 | Velvetleaf plant response rating (velvetleaf; [1]): 0 | Plant response rating, Velvetleaf (velvetleaf; [2]): 0 | Velvetleaf plant response rating (velvetleaf; [3]): 0 | Velvetleaf plant response rating (velvetleaf; [4]): 0 | Morningglory plant response rating (morningglory; [1]): 1 | Plant response rating, Morningglory (morningglory; [2]): 1 | Morningglory plant response rating (morningglory; [3]): 1 | Morningglory plant response rating (morningglory; [4]): 3 | Crabgrass plant response rating (crabgrass; [1]): 6 | Plant response rating, Crabgrass (crabgrass; [2]): 6 | Crabgrass plant response rating (crabgrass; [3]): 8 | Crabgrass plant response rating (crabgrass; [4]): 8 | B. signalgrass plant response rating (surinam grass; [1]): 0 | Plant response rating, B. signalgrass (surinam grass; [2]): 3 | B. signalgrass plant response rating (surinam grass; [3]): 4 | B. signalgrass plant response rating (surinam grass; [4]): 4 | Blackgrass plant response rating (blackgrass; [1]): 2 | Plant response rating, Blackgrass (blackgrass; [2]): 4 | Blackgrass plant response rating (blackgrass; [3]): 7 | Blackgrass plant response rating (blackgrass; [4]): 7 | Sugarbeets plant response rating (sugar beet; [1]): 0 | Plant response rating, Sugarbeets (sugar beet; [2]): 0 | Sugarbeets plant response rating (sugar beet; [3]): 0 | Sugarbeets plant response rating (sugar beet; [4]): 2 | Giant foxtail plant response rating (giant foxtail; [1]): 7 | Plant response rating, Giant foxtail (giant foxtail; [2]): 8 | Giant foxtail plant response rating (giant foxtail; [3]): 10 | Giant foxtail plant response rating (giant foxtail; [4]): 10 | Soybean plant response rating (soybean; [1]): 0 | Plant response rating, Soybean (soybean; [2]): 0 | Soybean plant response rating (soybean; [3]): 0 | Soybean plant response rating (soybean; [4]): 0 | Rape plant response rating (rape; [1]): 0 | Plant response rating, Rape (rape; [2]): 0 | Rape plant response rating (rape; [3]): 0 | Rape plant response rating (rape; [4]): 0 | Nutsedge plant response rating (purple nutsedge; [1]): 0 | Plant response rating, Nutsedge (purple nutsedge; [2]): 0 | Nutsedge plant response rating (purple nutsedge; [4]): 0 | Bedstraw plant response rating (bedstraw; [1]): 0 | Plant response rating, Bedstraw (bedstraw; [2]): 0 | Bedstraw plant response rating (bedstraw; [3]): 0 | Bedstraw plant response rating (bedstraw; [4]): 0 | Wild oats plant response rating (wild oat; [1]): 0 | Plant response rating, Wild oats (wild oat; [2]): 2 | Wild oats plant response rating (wild oat; [3]): 4 | Wild oats plant response rating (wild oat; [4]): 6 | Cocklebur plant response rating (cocklebur; [1]): 0 | Plant response rating, Cocklebur (cocklebur; [2]): 0 | Cocklebur plant response rating (cocklebur; [3]): 0 | Cocklebur plant response rating (cocklebur; [4]): 0 | Corn plant response rating (corn; [1]): 0 | Plant response rating, Corn (corn; [2]): 0 | Corn plant response rating (corn; [3]): 0 | Corn plant response rating (corn; [4]): 0 | Redroot pigweed plant response rating (pigweed; [1]): 0 | Plant response rating, Redroot pigweed (pigweed; [2]): 0 | Redroot pigweed plant response rating (pigweed; [3]): 0 | Redroot pigweed plant response rating (pigweed; [4]): 3
